What is called melting point is the temperature, or range, at which the solid turns liquid.

On to `FC(F)=C(F)F`, for which the melting point was -142 °C. `CCN(CC)C(=O)c1cccc(C)c1` showed a melting point of -45 °C. In the case of `CCCCC=CCCC=CCCCCCCOC(C)=O`, the melting point turned out to be 25 °C.

With `CCCC(=O)C(=O)O`, the melting point was 6.5 °C. The molecule `CCCC1COC(c2ccc(C#N)cc2)OC1` (configuration not stated) had a melting point of 57.5 °C. In turn, `O=C=Nc1ccc(-n2cccc2)cc1` displayed a melting point of 65 to 66 °C. In the case of `O=C1NC(=O)C(=NNc2ccc(Br)cc2)C(=O)N1`, the melting point was found to be 295 °C.

Consider `O=Cc1ccc(SC2CCCCC2)c([N+](=O)[O-])c1`, for which the melting point is 94 to 96 °C.

As to `C=C1C(=O)OC2C1CCC(C)C1C=CC(=O)C12C` (configuration not stated), the melting point was found to be 146 °C. With `c1cncc(-c2cccnc2)c1` the figure was 68 °C. As to `CC(C)(Oc1ccc2ccccc2c1)C(=O)O`, the melting point lay in the range of 123 to 124 °C. With `Cc1nc(-c2cccc(N=C=O)c2)no1` the figure was 72 to 74 °C. Consider `CNCC(=O)O`, for which the melting point was 208 °C.

Consider `NC(=O)Nc1ccc(Cl)cc1`, for which the melting point was 206 °C. With `Cc1nn(C)c(Cl)c1C(=O)O` the figure was 195 to 198 °C; with `COC(=O)[C@H](CCC(=O)O)NC(=O)OCc1ccccc1`, 68 to 70 °C; with `CCCCCCCCCCCCCCCCCCCl`, 28.6 °C. Next, `O=Cc1ccc(O)c(C(=O)O)c1`: 250 °C; `CC(=O)N[C@@H](Cc1ccccc1)C(=O)O`: 172 °C; `FC(F)(F)c1nn(CN2CCOCC2)c(=S)n1/N=C/c1ccc2c(c1)OCO2`: 183 °C.

For the molecule `O=C(Cl)c1ccccc1I`, the melting point lay in the range of 30 to 32 °C.

`O=C(O)CC(CC(=O)O)C(=O)O` returned a melting point of 166 °C. As to `CNCc1csc(C2CCN(C(=O)OC(C)(C)C)CC2)n1`, the melting point is 43 to 47 °C. In the case of `CCC1(C)C=C/C(=N\NS(=O)(=O)c2ccc(C)cc2)CC1` (configuration not stated), the melting point lay in the range of 159 to 169 °C.

Molecule `N#Cc1cc(F)c(N)cc1F` came in with a melting point of 95 to 97 °C.

Molecule `Cc1nn(Cc2nnc(S)o2)c(C)c1Br` gave a melting point of 194 to 195 °C. `CC(C)(C)OC(=O)Nc1ccc(C(=O)O)cc1` displayed a melting point of 179 to 181 °C.

The molecule `COP(=S)(OC)Oc1nc(Cl)c(Cl)cc1Cl` had a melting point of 46 °C. With `C/C(=N\CCO)c1c(O)c2ccccc2n(-c2ccccc2)c1=O`, the melting point was 201 to 202 °C.

Molecule `CC(=O)OC(C(=O)c1ccccc1)c1ccccc1` (configuration not stated) yielded a melting point of 82 °C.

Molecule `Brc1ccc(-c2cccnc2)nc1` showed a melting point of 77 °C.

Molecule `Cc1cc(C(C)(C)C)c(C)cc1O` displayed a melting point of 71.2 °C. The molecule `C[Si](C)(C)OC1(C#Cc2ccccc2)Cc2ccccc21` (configuration not stated) gave a melting point of 64 °C.

In turn, `CC1NC(=O)NC1=O` (configuration not stated) came in with a melting point of 151 °C.

Turning to `Cn1ncc(C(N)=O)c1N`, the melting point was in the range of 231 to 232 °C. With `O=C(O)c1ccc2c(c1)CCO2` the figure was 185 to 188 °C. `CCC1C(C)=NN=C(c2ccc(OC)c(OC)c2)c2cc(OC)c(OC)cc21` (configuration not stated) came in with a melting point of 156 °C. Next, `O=S(=O)(c1ccccc1)n1cc(CO)c2ccccc21`: 90 to 91 °C; `O=C(O)c1ccc(Br)c([N+](=O)[O-])c1`: 204 °C. For the molecule `Fc1cc(Br)ccc1Br`, the melting point came out at 34 °C. With `Ic1ncc[nH]1` the figure was 191 °C; with `COc1ccc(C#N)c(OC)c1OC`, 56 °C. `CNC(=O)Oc1ccccc1C1OCCO1` yielded a melting point of 114 °C.

For `CC(=O)OCC1=CC2OC(=O)C3=COC(OC4OC(CO)C(O)C(O)C4O)C1C32` (configuration not stated), the melting point is 132 °C.

`C=NCC#N` came in with a melting point of 129 °C. The molecule `O=C1c2ccccc2C(=O)c2cc3ccccc3cc21` came in with a melting point of 291 °C. In turn, `CNS(=O)(=O)c1ccc(C)cc1` displayed a melting point of 78.5 °C.

As to `O=C(O)c1cc2cc(O)ccc2[nH]1`, the melting point came to 249 °C. The molecule `COP(=S)(OC)SCC(=O)N(C)C=O` returned a melting point of 25.5 °C. `N#Cc1cc([N+](=O)[O-])cc(Cl)c1N` had a melting point of 180 to 185 °C. Turning to `NNc1c(Cl)cc(Cl)cc1C(F)(F)F`, the melting point was 40 to 43 °C. Molecule `CC1=NN(c2ccccc2)C(=O)C1C(=O)c1ccccc1` (configuration not stated) had a melting point of 90 to 92 °C.

`O=C1C(=O)c2c3ccccc3cc3cccc1c23`: the melting point was in the range of 268 to 270 °C. On to `CC(C)NC(=O)c1cc(F)c(Cl)nc1Cl`, for which the melting point is 159 to 161 °C.

`CCCCCCCCCCCCCCCCCCCc1ccccc1` registered a melting point of 40 °C. With `CCCCN(C)C(=O)Nc1ccc(Cl)c(Cl)c1` the figure was 102 °C. `O=Cc1nc2ccccc2c2ncccc12` registered a melting point of 144 to 145 °C. Turning to `CCCCCCCCCCCCCCCCCCCC(=O)OC`, the melting point amounted to 54.5 °C. As for `NC(=O)c1ncccc1O`, the melting point came to 195 °C.

The molecule `Cc1cccc(N2C(=O)C3ON=C(C(=O)c4ccco4)C3C2=O)c1` (configuration not stated) had a melting point of 129 °C. In the case of `CC(C)(C)c1cc(C=O)cc(C(C)(C)C)c1`, the melting point fell in the range of 82 to 87 °C. The molecule `Fc1ccc(Br)nc1` yielded a melting point of 28.5 °C. In turn, `CC(C)(C)c1ccc(-c2nnc(S)n2-c2cccc(C(F)(F)F)c2)cc1` gave a melting point of 256 to 260 °C. Consider `O=S(=O)(O)C(F)(F)F`, for which the melting point is less than 25 °C.

For the molecule `NC(=O)Nc1ccccc1`, the melting point came to 147 °C.

The molecule `CC(C)C1CCC2(C)CC(O)C3(C)CCC12O3` (configuration not stated) yielded a melting point of 114 °C.

With `Cc1cccc(C)c1NC(=O)c1cnc(C(C)(C)C)cn1`, the melting point stood at 85 °C. As for `O=Cc1c(Br)sc2ccc(Cl)cc12`, the melting point is 139 to 140 °C. Next, `O=S(=O)(Cl)c1cccc(S(=O)(=O)Cl)c1`: 59 °C; `Nc1cc(O)nc(N)n1`: 285 to 286 °C.

`Cc1cc(=O)[nH]c2c(/N=N/c3cccc([N+](=O)[O-])c3)c(N)nn12` registered a melting point of 318 °C. `CC(=O)Nc1ccc(S(N)(=O)=O)cc1` displayed a melting point of 220 °C. For `CCC(CCC(C)C1CCC2C3CC=C4CC(O)CCC4(C)C3CCC12C)C(C)C` (configuration not stated), the melting point came out at 147 °C. `CCOC(=O)c1csc(C2COc3ccccc3O2)n1` (configuration not stated) yielded a melting point of 66.5 to 69.8 °C. For the molecule `Cc1cccc(N(C)C(=S)Oc2ccc3c(c2)CCC3)c1`, the melting point came to 94 °C.

Molecule `O=C(O)c1csc(-c2cccnc2)n1` yielded a melting point of 283 to 284 °C. With `Cc1c(Cl)cc(Cl)c(O)c1Cl`, the melting point amounted to 46 °C. For the molecule `Cc1onc(-c2ccccc2)c1C(=O)CBr`, the melting point lay within 46 to 48 °C.

In turn, `C=C(C)CO` returned a melting point of -50 °C. With `O=S(=O)(Cl)c1ccc(C(F)(F)F)cc1Cl`, the melting point came out at 37 °C. `Nc1ccc(C=CC(=O)O)cc1` came in with a melting point of 122 °C. Next, `O=Cc1cccc2c1OCC2`: 54 to 55 °C. As to `CCC12CCCN(CCc3c([nH]c4ccccc34)CC1)C2` (configuration not stated), the melting point is 146 °C. As to `Brc1ccc2cc[nH]c2c1`, the melting point worked out at 92 °C.

In the case of `COc1cc(C(=O)NCc2ccc(OCCN(C)C)cc2)cc(OC)c1OC`, the melting point stood at 189 °C. With `NC(=O)Cc1cccc2ccccc12`, the melting point was found to be 184 °C.

`O=c1nc(SCc2ccc(Cl)cc2)c2c([nH]1)CCCC2` gave a melting point of 287 to 289 °C. Next, `CC(CC1CCCCC1)C1CCCCC1` (configuration not stated): -22 °C; `Cc1ccccc1/C=C(\C#N)c1nc2ccccc2[nH]1`: 210 to 211 °C; `O=C(Nc1ccccc1)C1CCCC/C1=C\Cc1ccccc1` (configuration not stated): 99 to 100 °C. In turn, `COC1=C(C(C)C)C(=O)C2=C(C1=O)C1(C)CCCC(C)(C)C1CC2O` (configuration not stated) showed a melting point of 138 °C. As for `Cc1c(N/N=C(/C#N)c2nc(-c3ccccc3)cs2)c(=O)n(-c2ccccc2)n1C`, the melting point is 226 °C. `CC(F)(F)C(=O)O` displayed a melting point of 43 °C.

For the molecule `O=C(c1ccccc1)c1ccc(-c2ccc(Br)cc2)cc1`, the melting point worked out at 157 °C.

`CC1(C)OC(=O)C(=Cc2ccc(-c3ccc(Br)cc3)o2)C(=O)O1` gave a melting point of 182 °C.

Regarding `O=C(O)C(O)C(=O)O`, the melting point turned out to be 157 °C.

`O=C(Nc1ccc(C=Cc2ccc(NC(=O)c3ccccc3)cc2)cc1)c1ccccc1` yielded a melting point of 352 °C.

Regarding `Cc1cc(C2(c3ccc(O)c(C)c3)CCCCC2)ccc1O`, the melting point is 184 to 185 °C.

In the case of `Clc1ccc2c(c1)Oc1ccccc1O2`, the melting point worked out at 88 °C. `c1cn[nH]c1` gave a melting point of 68 °C. In the case of `CC1(C)CC(O)CC(C)(CN)C1` (configuration not stated), the melting point stood at 45.5 °C. Next, `COc1cccc2cc(C(C)=O)oc12`: 93 °C; `CC(=O)C=CC(=O)O`: 124 °C; `CCOC(=O)c1sc(Br)nc1C`: 65 to 66 °C. `COc1ccc(CCC(C)=O)cc1` yielded a melting point of 8 °C.

`O=C(O)[C@@H]1CCN1C(=O)OCC1c2ccccc2-c2ccccc21` registered a melting point of 135 °C.

The molecule `O=C(Cl)c1cc([N+](=O)[O-])cc([N+](=O)[O-])c1` showed a melting point of 74 °C. `C=CCOc1cc(O)c(C(C)=O)c(O)c1` registered a melting point of 145 to 146 °C. Regarding `c1ccc(-c2cc[nH]n2)cc1`, the melting point lay within 75 to 77 °C. With `CC(=O)OCC1OC(n2cc(I)c(=O)[nH]c2=O)CC1OC(C)=O` (configuration not stated), the melting point was in the range of 161 to 163 °C.

For the molecule `CCOC(=O)c1c[nH]c(=S)nc1N`, the melting point is 256 to 258 °C.

`CCC(CC)(CBr)CBr` registered a melting point of 40 °C. The molecule `CC(=O)Nc1ccc(I)cc1C(F)(F)F` returned a melting point of 134 to 136 °C. In turn, `Cn1ccc(-c2ccc(Br)cc2)n1` came in with a melting point of 79.5 to 81 °C. For `Oc1cccnc1O`, the melting point stood at 245 °C. The molecule `Nc1cccc(N2CCOCC2)c1` gave a melting point of 118 to 119 °C. `c1ccc(-c2ccncc2)cc1` showed a melting point of 77.5 °C.

These data come from a melting point compilation (Tetko et al.).
